Results on one molecule are retold here after article PMC8009417, “Selective killing of homologous recombination-deficient cancer cell lines by inhibitors of the RPA:RAD52 protein-protein interaction” (PLoS ONE, 2021).

Structures are written as SMILES. pEC50: −log10 of the molar value. Bounds are passed on as bounds.

Test [1] has as its system single-strand annealing (SSA) in U2OS-SA cells. In words: Cell-based DSB repair assay, SSA (SA-GFP reporter, FACS). The settings on record: 4 nM, 2 h pre-treatment, three days. Here is the method:
(A) The effect of mitoxantrone (MX) on SSA and HR were studied with cell-based DSB repair assays. U2OS-SA and U2OS-DR cells were pre-treated with mitoxantrone for two hours before transfection of the SceI-expression plasmid. Then cells were grown in the presence of mitoxantrone for three days. DSB repair activities were determined by (B) FACS analysis. […] U2OS-SA cells were pre-treated with indicated concentrations of mitoxantrone for two hours, before I-SceI-expression vector transfection. After 72 hours incubation, the cells were harvested, and lysates were prepared. Lysate from each treatment was analyzed by 12% SDS-PAGE and the expression levels of I-SceI was determined by the western blot using anti-HA antibody. The p70 of RPA was used as a loading control. Ratios of I-SceI to p70 was obtained with ImageJ and are shown at the bottom of the image. C: control experiment without the addition of mitoxantrone. (D, E) Analysis of DSB repair activiies by western blots. […] At least three independent experiments were performed. Error bars represent standard deviations.

Test [2] relates to BRCA1-deficient HCC1937 breast cancer cells (empty vector, BRCA1-). In words: Cell viability assay (PrestoBlue, 72 h), HCC1937 with empty vector. It is filed as cell-based. The settings on record: Homo sapiens, estimated from the graphs. Here is the method: (§1) Fig 2 BRCA1-deficient HCC1937 breast cancer cell line survival assay. BRCA1-deficient HCC1937 cells corrected with wild-type BRCA1 gene (BRCA1+; closed triangle), and with an empty vector (BRCA1-; closed circle) were examined. For each experiment (Figs 2–4), cell lines were treated with nine concentrations of (A) quinacrine, (B) mitoxantrone, and (C) doxorubicin in 96-well culture plates at 5x10^3 cell/well density. Each treatment point was made in sextuplicate. Treated cells were incubated for 72 hours at 37°C before assessing cell viability using PrestoBlue. Data were normalized to vehicle control. The experiment was repeated three times. Error bars indicate the standard deviation.
(§2) The HCC1937 cell line (a gift from Dr. Simon Powell Memorial Sloan Kettering (MSK), New York) was derived from a mammary gland primary ductal carcinoma at the early onset of a tumor. This TNBC patient carried a germline mutation in BRCA1, resulting in carboxy-terminal truncated protein and loss of the second BRCA1 allele. BRCA1-restored and empty vector cell lines were also obtained by transfection of a vector containing a full-length human BRCA1 cDNA or an empty vector, respectively. The HCC1937 cell lines were cultured as described.
(§3) Cells were seeded 5 x 10^3 cells per well in 96-well plates in a 90 μL volume per well one day before treatment. Cells in 96-well plates were incubated with increasing concentrations of the compound or vehicle control (1% DMSO) for 72 hours. Each treatment plate contained nine concentrations of a compound in sextuplicate. Growth inhibition was determined using PrestoBlue reagent (Life Technologies, #A13261). Fluorescent measurements were taken using a Spectramax M5 plate reader (MDS). To assess cells’ replication in the absence of compounds as a control, six wells on each plate were treated with vehicle to be read in triplicate at the initial treatment day (T0) and at 72-hour read (T100).

Test [3] has as its system T1, RPA:RAD52 PPI in U2OS cells.
T1 construct: endogenous in cells; host or cells: U2OS
In words: Size exclusion chromatography and co-immunoprecipitation of RAD52 with RPA from treated cells. It is filed as cell-based. The settings on record: 3 nM, 24 hours, preliminary experiments. Here is the method: (A) RAD52 was co-immunoprecipitated with RPA in the fractions 5, 8, and 10 in the control experiment. The elution positions of the molecular weight standards, thyroglobulin (669 kDa), apoferritin (443 kDa), beta-amylase (200 kDa), and bovine serum albumin (66 kDa), are indicated below the western blot.
U2OS cells (10^6 cells) were seeded in a 100 mm dish and grown overnight. The cells were treated with the indicated concentrations of mitoxantrone (MTX) for 24 hours. The cell lysate was prepared in 100 μl of lysis buffer (PBS with 0.5% NP40, 0.5% Triton X100, 1 mM DTT, protease and phosphatase inhibitors, and 10% glycerol). After mixing with 100 μl cold PBS, the lysate was incubated with 100 μl of DEAE sepharose (GE Life Sciences) for 2 hours at 4°C with rotation. An unbound fraction from DEAE sepharose (~200 μl) was diluted with 200 μl of PBS and half of the mixture was fractionated with Superdex200 (GE Life Sciences) using PBS as elution buffer. Each fraction was incubated with anti-RPA (p32) antibody conjugated with biotin (NeoMarkers, MS-691-B0) at 4°C overnight, then incubated with Streptavidin-magnetic beads (Promega #Z5481) for one hour at 4°C with rotation. […] RAD52 and RPA (p32) were detected by western blotting with anti-RAD52 antibody (LS-C42570, LSBio) and anti-RPA2 antibody (A300-244A, Bethyl Laboratories), respectively.
On the technique in general: In gel filtration, larger molecules generally elute earlier.

Test [4] has as its system HCC1937 cells corrected with wild-type BRCA1 gene (BRCA1+). In words: Cell viability assay (PrestoBlue, 72 h), HCC1937+BRCA1. The settings on record: Homo sapiens, estimated from the graphs. It is filed as cell-based. Here is the method:
as §1, §2, §3

In test [5] the test system is GFP-RAD51 foci in PE01 C4-2 cells. In words: Radiation-induced GFP-RAD51 foci formation. It is filed as cell-based, human. Conditions: 3 nM pre-treatment, 15 Gy X-ray. Here is the method:
Cells without mitoxantrone and radiation (labeled C) were controls. The average percent of cells with foci (more than 5 foci per cell) are graphed from three independent experiments. More than 30 cells per experiment were analyzed. Error bars represent standard deviation.
Each cell line was seeded on a coverslip at 10^5 cells per well in a 24-well plate. After the 24 hour incubation, the cells were pre-incubated with mitoxantrone for 2 hours, then irradiated with X-ray at 15 Gy with the RS-2000 Irradiator. After 2~ 8 hours of the irradiation, the cells were fixed in 10% formaldehyde solution at room temperature for 30 min, followed by 10 min incubation in PBS containing 0.5% Triton X-100. After staining with 1 μg/ml H1399 Hoechst dye solution, each coverslip was mounted on a slide. GFP proteins were detected with a Zeiss 710 Confocal Laser Scanning Microscope, and images were processed using Zeiss ZEN software. A cell contained more than 5 foci was considered as positive.

The test system of test [6] is UWB1.289 cells with or without BRCA1 restoration. In words: Apoptosis by cleaved PARP western blot. It is filed as cell-based, human. Conditions: 0.2 μM for three days; BRCA1-mutated vs BRCA1-restored UWB1.289. (In general: A western blot detects proteins with antibodies after separation by electrophoresis.)
Method: UWB1.289 cells with or without restoration of the BRCA1 expression were treated with 0.2 μM of mitoxantrone (MX) for three days. Olaparib (Ola) at 1 μM was used as control for the induction of apoptosis. Near EC50 concentrations were selected for each compound. After the treatment with each compound, cell lysates were prepared and cleaved PARP was detected with (A) anti-cleaved PARP antibody (Cell Signaling Technology #9541) and (B) anti-PARP antibody (Cell Signaling Technology #9542). Tubulin detected with anti-beta-tubulin antibody (Cell Signaling Technology #15115) was used as an internal control. (C) Ratios of cleaved PARP to tubulin were determined with ImageJ and graphed. Three independent experiments were performed and the mean values are shown. The bars indicate standard deviations. Statistical significance of differences was determined with Student t-test (* p<0.05 and ** p<0.01).
Test [7] concerns BRCA2-revertant PE01 C4-2 cells (BRCA2+). In words: Cell viability assay (PrestoBlue, 72 h), PE01 C4-2. Conditions: Homo sapiens, C4-2, 72 h, read-out: EC50, cell viability.

A word on the inhibition: it is the change of the read-out against control, counted positive when it falls. One may read the pEC50 as the negative decadic logarithm of the EC50, by convention in mol/L. As for `O=C1c2c(O)ccc(O)c2C(=O)c2c(NCCNCCO)ccc(NCCNCCO)c21` [Mitoxantrone, mitoxantrone], the inhibition at 0.004 µM in test [1] turned out to be 72%. In addition, the pEC50 was 6.10 in test [2], less than 5.30 in test [4] and 6.40 in test [7]. The “Effect on RPA:RAD52 PPI in cells (co-immunoprecipitation of RAD52 with RPA)” value in test [3] was “disrupts the RPA:RAD52 PPI in cells”. For the same molecule, the “Effect on radiation-induced RAD51 foci formation” value in test [5] was “did not suppress the radiation-induced RAD51 foci formation”. In test [6], the “Induction of apoptosis (cleaved PARP)” value is given as “preferentially induced apoptosis in the BRCA1-mutated UWB1.289”.
